Assays:
[1] = test system: Ezh2 expression in Ezh2f/f; PDGFB/H3K27M NSCs; experiment: Immunoblot of Ezh2 after 4-OHT treatment of Ezh2f/f; PDGFB/H3K27M NSCs (FIG. 3a); format: cell-based, mouse; conditions: CreER PDGFB/H3K27M NSCs, 8 days of treatment (FIG. 3a)
Description: Cells were trypsinized, washed once with 1× phosphate buffer saline (PBS) and lysed in TOPEX+ buffer (300 mM NaCl, 50 mM Tris-HCl pH7.5, 0.5% Triton X-100, 1% SDS, 1 mM DTT, Aprotinin, Leupeptin, 0.1 mM phenylmethanesulfonyl fluoride (PMSF) and 33.33 U/mL Benzonase (EMD-Novagen)). Protein concentrations in the cell lysates were measured by Bradford reagent (Bio-Rad). Cell lysates were separated by SDS-PAGE and transferred to nitrocellulose membrane. The antibodies used for the immunoblotting were antibodies specifically recognising H3K27me3 (C36B11, Cell Signaling), H3K27me2, p16^Ink4a, p53, H3K27M, actin, H3 and Ezh2.

[2] = test system: Ezh2f/f; PDGFB/H3K27M NSCs injected into the mouse pons; experiment: Survival of mice injected in the pons with pre-treated Ezh2f/f; PDGFB/H3K27M NSCs (FIG. 3b); conditions: 10^5 cells pre-treated with 4-OHT vs ethanol
Description: Briefly, mice were anesthetized using isoflurane (1.5 L O2/minute and 2.5% isoflurane) and placed in a stereotactic device (David Kopf instruments). […] The hole in the skull was closed with bonewax (Agnthos) and the scalp was closed using clips (Agnthos). The clips were removed after one week of injection.
PDGFB/H3K27M NSCs in mice with Ezh2^f/f; CreER (Ezh2^f/f;PDGFB/H3K27M) background were generated. In these mice Ezh2 could be conditionally deleted.

[3] = test system: PDGFB NSCs expressing either WT or K27M mutant H3.3; experiment: Colony formation assay of PDGFB NSCs (FIG. 2C); format: cell-based, mouse; conditions: 2000 cells plated, colonies after 9 days
[4] = test system: Ink4a−/−/Arf−/− NSCs expressing constitutive active epidermal growth factor receptor (*EGFR); experiment: Cell proliferation of adult GBM model cells (FIG. 4); format: cell-based, mouse; conditions: inhibitor vs DMSO
Excerpt: Cell proliferation of DMSO or EZH2 inhibitor treated Ink4a/Arf−/−*EGFR NSCs.
A mouse model representing adult classical subtype of GBM subtypes was investigated.

[5] = test system: PDGFB NSCs expressing either WT or K27M mutant H3.3; conditions: 3 μM inhibitor vs DMSO
Description: Cells were harvested and counted using Neubauer chamber every 3-4 days.

[6] = test system: Ezh2f/f; PDGFB/H3K27M NSCs injected into the mouse pons; experiment: Survival of mice bearing Ezh2f/f; PDGFB/H3K27M NSC tumours treated in vivo (FIG. 3c); conditions: 10^4 cells injected into the pons, treatment after 3 weeks, vs oil-treated control
[7] = target: T1, Human PRC2 complex (EZH2, EED, SUZ12, RbAp48, AEBP2) (Homo sapiens, UniProt Q15910); experiment: EZH2 methyltransferase activity within PRC2 complex, scintillation proximity assay (Example 2); format: biochemical; conditions: determined as described in Example 2; inhibition of methyltransferase activity of EZH2 within PRC2
T1 construct: FLAG (N); made in house; host or cells: Sf9 insect cells
T1 sequence (Q15910 whole entry): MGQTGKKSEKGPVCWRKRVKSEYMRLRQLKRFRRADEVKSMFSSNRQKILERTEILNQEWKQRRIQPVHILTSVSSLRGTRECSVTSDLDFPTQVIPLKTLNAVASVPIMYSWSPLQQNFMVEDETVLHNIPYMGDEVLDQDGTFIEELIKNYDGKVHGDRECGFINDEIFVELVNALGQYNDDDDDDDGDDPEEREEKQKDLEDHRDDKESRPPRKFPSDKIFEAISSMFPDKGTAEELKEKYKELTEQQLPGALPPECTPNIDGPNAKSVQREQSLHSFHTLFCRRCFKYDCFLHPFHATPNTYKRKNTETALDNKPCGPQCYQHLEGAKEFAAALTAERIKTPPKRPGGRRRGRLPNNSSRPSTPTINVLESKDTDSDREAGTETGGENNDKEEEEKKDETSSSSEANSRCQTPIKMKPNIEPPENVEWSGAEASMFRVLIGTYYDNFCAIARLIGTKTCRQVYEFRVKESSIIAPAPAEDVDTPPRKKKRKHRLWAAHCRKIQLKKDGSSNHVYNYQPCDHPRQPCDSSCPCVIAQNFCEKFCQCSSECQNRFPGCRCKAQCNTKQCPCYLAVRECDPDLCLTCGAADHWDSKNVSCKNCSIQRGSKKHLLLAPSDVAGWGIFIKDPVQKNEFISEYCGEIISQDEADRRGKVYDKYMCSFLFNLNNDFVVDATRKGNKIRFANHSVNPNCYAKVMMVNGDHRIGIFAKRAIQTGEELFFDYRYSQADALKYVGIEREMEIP
T1 sequence (O75530 whole entry partner): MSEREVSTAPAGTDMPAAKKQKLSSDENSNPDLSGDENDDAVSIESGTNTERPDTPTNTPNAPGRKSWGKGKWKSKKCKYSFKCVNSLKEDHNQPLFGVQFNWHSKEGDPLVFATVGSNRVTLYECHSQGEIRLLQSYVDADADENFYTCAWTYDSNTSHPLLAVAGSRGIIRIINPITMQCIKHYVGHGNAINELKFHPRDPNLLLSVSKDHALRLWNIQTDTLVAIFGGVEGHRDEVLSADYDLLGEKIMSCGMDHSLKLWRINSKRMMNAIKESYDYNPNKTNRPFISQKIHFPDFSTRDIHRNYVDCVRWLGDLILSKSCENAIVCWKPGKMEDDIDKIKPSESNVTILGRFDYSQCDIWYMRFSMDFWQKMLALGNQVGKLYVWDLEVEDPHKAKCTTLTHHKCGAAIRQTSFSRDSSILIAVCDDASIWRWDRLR
T1 sequence (Q15022 whole entry partner): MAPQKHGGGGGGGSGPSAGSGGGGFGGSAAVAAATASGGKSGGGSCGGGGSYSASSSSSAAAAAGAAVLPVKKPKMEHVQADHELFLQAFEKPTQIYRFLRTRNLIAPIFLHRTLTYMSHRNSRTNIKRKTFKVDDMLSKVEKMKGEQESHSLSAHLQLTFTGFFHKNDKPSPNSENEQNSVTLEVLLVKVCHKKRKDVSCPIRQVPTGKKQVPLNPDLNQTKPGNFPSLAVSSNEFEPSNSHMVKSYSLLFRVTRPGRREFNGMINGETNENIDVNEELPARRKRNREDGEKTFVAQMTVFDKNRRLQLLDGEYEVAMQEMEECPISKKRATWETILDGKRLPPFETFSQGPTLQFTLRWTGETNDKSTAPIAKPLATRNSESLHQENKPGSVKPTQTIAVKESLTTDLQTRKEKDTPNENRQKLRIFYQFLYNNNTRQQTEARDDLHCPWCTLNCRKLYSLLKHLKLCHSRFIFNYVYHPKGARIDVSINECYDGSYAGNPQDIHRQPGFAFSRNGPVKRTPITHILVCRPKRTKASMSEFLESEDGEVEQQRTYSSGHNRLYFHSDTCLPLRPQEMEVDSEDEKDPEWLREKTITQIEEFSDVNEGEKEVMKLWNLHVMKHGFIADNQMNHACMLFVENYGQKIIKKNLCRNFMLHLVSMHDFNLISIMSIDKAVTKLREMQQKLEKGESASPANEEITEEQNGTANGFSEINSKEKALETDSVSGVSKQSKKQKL
T1 sequence (Q09028 whole entry partner): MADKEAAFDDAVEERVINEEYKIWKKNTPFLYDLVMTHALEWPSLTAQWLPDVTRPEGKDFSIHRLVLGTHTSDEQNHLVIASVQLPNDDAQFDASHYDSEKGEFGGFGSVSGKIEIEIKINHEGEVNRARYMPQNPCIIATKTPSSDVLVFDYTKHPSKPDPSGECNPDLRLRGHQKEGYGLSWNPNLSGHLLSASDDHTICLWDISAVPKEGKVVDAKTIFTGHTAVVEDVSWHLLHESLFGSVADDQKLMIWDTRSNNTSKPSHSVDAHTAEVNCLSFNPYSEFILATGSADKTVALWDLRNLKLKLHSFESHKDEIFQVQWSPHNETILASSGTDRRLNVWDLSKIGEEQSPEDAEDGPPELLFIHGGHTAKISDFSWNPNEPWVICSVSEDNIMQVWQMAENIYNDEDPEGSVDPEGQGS
T1 sequence (Q6ZN18 1-503 partner limits assumed): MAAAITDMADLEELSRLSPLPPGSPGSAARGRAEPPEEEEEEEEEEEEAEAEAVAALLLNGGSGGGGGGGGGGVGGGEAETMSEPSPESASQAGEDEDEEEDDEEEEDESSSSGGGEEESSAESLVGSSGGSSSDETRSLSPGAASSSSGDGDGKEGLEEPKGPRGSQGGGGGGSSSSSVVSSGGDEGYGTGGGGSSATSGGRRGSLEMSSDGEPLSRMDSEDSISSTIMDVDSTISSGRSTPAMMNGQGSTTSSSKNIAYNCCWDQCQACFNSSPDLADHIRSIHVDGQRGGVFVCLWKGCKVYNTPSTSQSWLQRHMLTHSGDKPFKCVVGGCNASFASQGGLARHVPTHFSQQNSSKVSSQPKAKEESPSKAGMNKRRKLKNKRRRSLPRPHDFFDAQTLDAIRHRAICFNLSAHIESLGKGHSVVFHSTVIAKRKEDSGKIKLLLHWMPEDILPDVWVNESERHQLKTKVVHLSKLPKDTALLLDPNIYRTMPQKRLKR
Description: Compounds can be evaluated for their ability to inhibit the methyltransferase activity of EZH2 within the PRC2 complex using the following assay. Human PRC2 complex is prepared by co-expressing each of the 5 member proteins (EZH2, EED, SUZ12, RbAp48, AEBP2) in Sf9 cells followed by co-purification. The proteins may be expressed as tagged versions, e.g. EZH2 may be expressed as FLAG-EZH2. The tag can be used for purification.
Enzyme activity is measured in a scintillation proximity assay (SPA) where a tritiated methyl group is transferred from 3H-SAM to a lysine residue on Histone H3 of a mononucleosome, purified from HeLa cells. Mononucleosomes are captured on SPA beads and the resulting signal is read on a ViewLux plate reader. SPA beads are e.g. available from Perkin Elmer, United States. This may be done as described in Garapaty-Rao et al, 2013 Identification of EZH2 and EZH1 small molecule inhibitors with selective impact on diffuse large B cell lymphoma cell growth. Chemistry and Biology 20, 1329-1339.
1. […]
1. Read the assay plates on the Viewlux Plate Reader utilizing the 613 nm emission filter with a 300 s read time. […]
Percent inhibition is calculated relative to the DMSO control for each compound concentration and the resulting values are fit using standard IC50 fitting parameters within the ABASE data fitting software package.

EZH2 = conditions: PDGFB NSCs, different concentrations for 3 days, FIG. 2A

Compound	colonies formed [3]	proliferation [4]	proliferation [5]	other results
4-hydroxytamoxifen [4-OHT]	–	–	–	Ezh2 expression [1]: complete loss of Ezh2; survival of mice [2]: significantly longer survival
CCN(c1cc(-c2ccc(CN3CCOCC3)cc2)cc(C(=O)NCc2c(C)cc(C)[nH]c2=O)c1C)C1CCOCC1 [EPZ6438]	formed fewer colonies	did not affect their proliferation	reduced proliferation	–
CC/C(=C(\c1ccccc1)c1ccc(OCCN(C)C)cc1)c1ccccc1 [Tamoxifen, tamoxifen]	–	–	–	survival of mice [6]: significantly longer survival
GSK343	formed fewer colonies	did not affect their proliferation	reduced proliferation	IC50 [7]: 5 nM; EZH2 inhibition (H3K27me3 and H3K27me2 levels by immunoblot) (EZH2): potent and highly selective EZH2 inhibitors

From patent US20180271857A1, “TREATMENT OF CANCER BY INHIBITING EZH2 ACTIVITY” (University of Copenhagen, priority 2014, published 2018)
